Reference: the NIST ThermoML archive (doi:10.1016/j.tca.2010.01.005)

Experiment: excess molar enthalpy (molar enthalpy of mixing); xn = mol fraction of the nth substance listed
Settings: 303.15 K, 101 kPa, Liquid, Calvet calorimetry

BrCBr [dibromomethane] + CC(=O)c1ccccc1
Settings | excess molar enthalpy [kcal/mol]
x1 = 0.1763 | -0.0244
x1 = 0.3362 | -0.0354
x1 = 0.4052 | -0.0387
x1 = 0.4229 | -0.0382
x1 = 0.5115 | -0.0382
x1 = 0.6248 | -0.0361
x1 = 0.7449 | -0.0272
x1 = 0.852 | -0.0182

c1ccoc1 [furan] + BrCBr
Settings | excess molar enthalpy [kcal/mol]
x2 = 0.1499 | 0.0447
x2 = 0.2828 | 0.0554
x2 = 0.3405 | 0.0552
x2 = 0.4247 | 0.0507
x2 = 0.6268 | 0.0397
x2 = 0.7204 | 0.0344
x2 = 0.8358 | 0.0261
x2 = 0.9381 | 0.0131

BrCBr [dibromomethane] + CC#N
Settings | excess molar enthalpy [kcal/mol]
x1 = 0.1028 | 0.0213
x1 = 0.2166 | 0.0349
x1 = 0.3067 | 0.0413
x1 = 0.4007 | 0.0428
x1 = 0.5547 | 0.0359
x1 = 0.6564 | 0.0256
x1 = 0.7022 | 0.0213
x1 = 0.8786 | 0.0055
